tested on: HIV-1 single-round infectious reporter virus; assay: Single-round infectious HIV-1 luciferase reporter virus infection of HeLa CD4 cells; assay type: cell-based; settings: Human immunodeficiency virus 1, HeLa, 72 h
Experimental: • Virus production—Human embryonic Kidney cell line, 293T, was propagated in Dulbecco's Modified Eagle Medium (Invitrogen, Carlsbad, Calif.) containing 10% fetal Bovine serum (FBS, Sigma, St. Louis, Mo.). • Virus infection—Human epithelial cell line, HeLa, expressing the HIV-1 receptor CD4 was propagated in Dulbecco's Modified Eagle Medium (Invitrogen, Carlsbad, Calif.) containing 10% fetal Bovine serum (FBS, Sigma, St. Louis, Mo.) and supplemented with 0.2 mg/mL GENETICIN® (Invitrogen, Carlsbad, Calif.). • Virus—Single-round infectious reporter virus was produced by co-transfecting human embryonic Kidney 293 cells with an HIV-1 envelope DNA expression vector and a proviral cDNA containing an envelope deletion mutation and the luciferase reporter gene inserted in place of HIV-1 nef sequences (Chen et al., Ref. 41). Transfections were performed using Lipofectamine Plus reagent as described by the manufacturer (Invitrogen, Carlsbad, Calif.). Experimental Procedure:
1. HeLa CD4 cells were plated in 96 well plates at a cell density of 1×10^4 cells per well in 100 μl Dulbecco's Modified Eagle Medium containing 10% fetal Bovine serum and incubated overnight.
2. Compound was added in a 2 μl dimethylsulfoxide solution, so that the final assay concentration would be ≦10 μM.
3. 100 μl of single-round infectious reporter virus in Dulbecco's Modified Eagle Medium was then added to the plated cells and compound at an approximate multiplicity of infection (MOI) of 0.01, resulting in a final volume of 200 μl per well.
4. Virally-infected cells were incubated at 37° C., in a CO2 incubator, and harvested 72 h after infection.
5. Viral infection was monitored by measuring luciferase expression from viral DNA in the infected cells using a luciferase reporter gene assay kit, as described by the manufacturer (Roche Molecular Biochemicals, Indianapolis, Ind.). Infected cell supernatants were removed and 50 μl of lysis buffer was added per well. After 15 minutes, 50 μl of freshly-reconstituted luciferase assay reagent was added per well. Luciferase activity was then quantified by measuring luminescence using a Wallac MICROBETA® scintillation counter.
6. The percent inhibition for each compound was calculated by quantifying the level of luciferase expression in cells infected in the presence of each compound as a percentage of that observed for cells infected in the absence of compound and subtracting such a determined value from 100.
7. An EC50 provides a method for comparing the antiviral potency of the compounds of this disclosure. The effective concentration for fifty percent inhibition (EC50) was calculated with the Microsoft Excel Xlfit curve fitting software. For each compound, curves were generated from percent inhibition calculated at 10 different concentrations by using a four parameter logistic model (model 205). Table 1 is the key for the data in Table 2.

Row | SMILES | EC50 [nM]
1 | COc1cnc(-c2cc(CO)[nH]n2)c2[nH]cc(C(=O)C(=O)N3CCn4c(-c5ccccc5)cnc4C3)c12 [Compound J1] | 0.05
2 | COc1cnc(-n2cnc(C)n2)c2[nH]cc(C(=O)C(=O)N3CCc4c(cnn4-c4cc(C)nc(C)n4)C3)c12 [Compound L2] | 331
3 | COc1cnc(-n2cnc(C)n2)c2[nH]cc(C(=O)C(=O)N3CCn4c(-c5ccncc5)cnc4C3)c12 [Compound F6] | 13.6
4 | COc1cnc(-n2cnc(C)n2)c2[nH]cc(C(=O)C(=O)N3CCc4c(cnn4-c4ccccc4)C3)c12 [Compound L3] | 0.03
5 | COc1cnc(-n2cnc(C)n2)c2[nH]cc(C(=O)C(=O)N3CCn4c(nnc4-c4ccccc4C)C3)c12 [Compound C1] | 11.8
6 | COc1cnc(-n2cnc(C)n2)c2[nH]cc(C(=O)C(=O)N3CCn4c(nnc4-c4ccccc4F)C3)c12 [Compound C2] | 0.29
7 | O=C(C(=O)N1CCn2c(nnc2-c2ccccc2)C1)c1c[nH]c2cccc(F)c12 [Compound A1] | 217
8 | COc1cnc(-n2cnc(C)n2)c2[nH]cc(C(=O)C(=O)N3CCn4c(nc(C)c4-c4ccccn4)C3)c12 [Compound H2] | 1
9 | COc1cnc(-n2ccnn2)c2[nH]cc(C(=O)C(=O)N3CCn4c(-c5ccccc5)cnc4C3)c12 [Compound D2] | 0.05
10 | COc1cnc(-n2cnc(C)n2)c2[nH]cc(C(=O)C(=O)N3CCn4c(nnc4-c4ccccc4)C3)c12 [Compound B1] | 0.95
11 | O=C(C(=O)N1CCN2C(c3ccccc3)=NCC2C1)c1c[nH]c2c(-n3ccnn3)ncc(F)c12 (stereo not drawn) [Compound O1] | 13
12 | COc1cnc(-n2cnc(C)n2)c2[nH]cc(C(=O)C(=O)N3CCc4c(c(-c5ccccc5)nn4-c4ccccc4)C3)c12 [Compound K1] | 2.6
13 | COc1cnc(-n2cnc(C)n2)c2[nH]cc(C(=O)C(=O)N3CCn4c(nnc4-c4ccccc4O)C3)c12 [Compound C7] | 1.91
14 | COc1cnc(-n2cnc(C)n2)c2[nH]cc(C(=O)C(=O)N3CCn4c(nnc4-c4ccccc4C(N)=O)C3)c12 [Compound C4] | > 500
15 | COc1cnc(-n2cnc(C)n2)c2[nH]cc(C(=O)C(=O)N3CCn4c(-c5ccccc5C#N)cnc4C3)c12 [Compound F5] | 98.9
16 | COc1cnc(-n2cnc(C)n2)c2[nH]cc(C(=O)C(=O)N3CCn4c(cnc4-c4ccccc4)C3)c12 [Compound N1] | 0.06
17 | COc1cnc(-n2cnc(C)n2)c2[nH]cc(C(=O)C(=O)N3CCn4c(nc(C(F)(F)F)c4-c4ccccn4)C3)c12 [Compound I3] | 0.59
18 | COc1cnc(-n2cnc(C)n2)c2[nH]cc(C(=O)C(=O)N3CCc4c(ncn4-c4ccccc4)C3)c12 [Compound M1] | 0.07

same assay, conditions: Human immunodeficiency virus 1, HeLa, 72 h, read-out: EC50 Group from Table 1

Row | SMILES | EC50 [nM]
19 | COc1cnc(-n2cnc(C)n2)c2[nH]cc(C(=O)C(=O)N3CCc4c(cnn4-c4ccccn4)C3)c12 [Compound L4] | < 500
20 | COc1cnc(-n2cnc(C)n2)c2[nH]cc(C(=O)C(=O)N3CCn4c(-c5ccc(O)cc5)cnc4C3)c12 [Compound F3] | < 500
21 | COc1cnc(-n2cnc(C)n2)c2[nH]cc(C(=O)C(=O)N3CCn4c(nc(Cl)c4-c4ccccc4)C3)c12 [Compound G1] | < 500
22 | COc1cnc(-n2cnc(C)n2)c2[nH]cc(C(=O)C(=O)N3CCn4c(cnc4-c4ccc(F)cc4F)C3)c12 [Compound N2] | < 500
23 | COc1ccc(-c2cnc3n2CCN(C(=O)C(=O)c2c[nH]c4c(-n5cnc(C)n5)ncc(OC)c24)C3)cn1 [Compound F4] | < 500
24 | COc1cnc(-n2cnc(C)n2)c2[nH]cc(C(=O)C(=O)N3CCn4c(-c5ccccc5)cnc4C3)c12 [Compound D1] | < 500
25 | COc1nc2n(c1-c1ccccc1)CCN(C(=O)C(=O)c1c[nH]c3c(-n4cnc(C)n4)ncc(OC)c13)C2 [Compound H1a] | < 500
26 | COc1cnc(-n2ccnn2)c2[nH]cc(C(=O)C(=O)N3CCn4c(nnc4-c4ccccc4)C3)c12 [Compound B2] | < 500
27 | COc1cnc(-n2cnc(C)n2)c2[nH]cc(C(=O)C(=O)N3CCc4c(cnn4-c4cnccn4)C3)c12 [Compound L5] | < 500
28 | COc1ccccc1-c1nnc2n1CCN(C(=O)C(=O)c1c[nH]c3c(-n4cnc(C)n4)ncc(OC)c13)C2 [Compound C5] | < 500
29 | COc1cnc(-n2cnc(C)n2)c2[nH]cc(C(=O)C(=O)N3CCn4c(nnc4-c4ccccn4)C3)c12 [Compound C3] | < 500
30 | O=C(C(=O)N1CCn2c(nc(C(F)(F)F)c2-c2ccccc2)C1)c1c[nH]c2c(-n3ccnn3)ncc(F)c12 [Compound I2] | < 500
31 | COc1cnc(-c2cncnc2)c2[nH]cc(C(=O)C(=O)N3CCn4c(-c5ccccc5)cnc4C3)c12 [Compound D3] | < 500
32 | COc1cnc(-n2cnc(C)n2)c2[nH]cc(C(=O)C(=O)N3CCn4c(nnc4-c4cccc(C)c4)C3)c12 [Compound C8] | < 500
33 | COc1cnc(-n2cnc(C)n2)c2[nH]cc(C(=O)C(=O)N3CCn4c(-c5cccc(O)c5)cnc4C3)c12 [Compound F1] | < 500
34 | COc1cnc(-n2cnc(C)n2)c2[nH]cc(C(=O)C(=O)N3CCN4C(c5ccccn5)=NCC4C3)c12 (stereo not drawn) [Compound O2] | < 500
35 | COc1nc2n(c1-c1ccccn1)CCN(C(=O)C(=O)c1c[nH]c3c(-n4cnc(C)n4)ncc(OC)c13)C2 [Compound H1b] | < 500
36 | O=C(C(=O)N1CCn2c(nnc2-c2ccccc2)C1)c1c[nH]c2c(-n3ccnn3)ncc(F)c12 [Compound B3] | < 500
37 | COc1cnc(-n2cnc(C)n2)c2[nH]cc(C(=O)C(=O)N3CCc4c(ncn4-c4ccccn4)C3)c12 [Compound M2] | < 500
38 | COc1cnc(-n2cnc(C)n2)c2[nH]cc(C(=O)C(=O)N3CCn4c(nc(C(F)(F)F)c4-c4ccccc4)C3)c12 [Compound I1] | < 500
39 | COc1cnc(-c2cc(C(C)(C)O)[nH]n2)c2[nH]cc(C(=O)C(=O)N3CCn4c(-c5ccccc5)cnc4C3)c12 [Compound J2] | < 500
40 | COCc1ncn(-c2ncc(OC)c3c(C(=O)C(=O)N4CCn5c(nnc5-c5ccccc5)C4)c[nH]c23)n1 [Compound B4] | < 500
41 | COc1cnc(-n2cnc(C)n2)c2[nH]cc(C(=O)C(=O)N3CCc4c(cnn4-c4ncccn4)C3)c12 [Compound L1] | < 500
42 | COc1cnc(-n2cnc(C)n2)c2[nH]cc(C(=O)C(=O)N3CCn4c(nc(Br)c4-c4ccccc4)C3)c12 [Compound G2] | < 500
43 | COc1cnc(-n2cnc(C)n2)c2[nH]cc(C(=O)C(=O)N3CCn4c(nnc4-c4ccccc4Cl)C3)c12 [Compound C6] | < 500
44 | COc1cnc(-n2cnc(C)n2)c2[nH]cc(C(=O)C(=O)N3CCn4c(-c5cccnc5)cnc4C3)c12 [Compound F2] | < 500
45 | COc1cnc(-n2cnc(C)n2)c2[nH]cc(C(=O)C(=O)N3CCn4c(-c5ccccn5)cnc4C3)c12 [Compound E1] | < 500
